From patent US10285972B2, “Trans-2-nonadecyl-4-hydroxymethyl-1,3-dioxolane and producing methodthereof” (Greenyn Biotechnology Co., Ltd, priority 2014, dated 2019)

What was measured:
[1] = Body weight and food intake of mice fed 45% high-fat diet for 8 weeks; format: in vivo, C57BL/6 mice; settings: for Final wight: mean±SE
Experimental: (§1) The 4 weeks-old male C57BL/6 mice were divided into 5 groups and treated with different feeding conditions, wherein the group 1 was the blank control fed with normal diet and water, the group 2 was fed with 45% high-fat diet and water, the group 3 was fed with 45% high-fat diet, water and 10 mg/Kg the compound TNHD, the group 4 was fed with 45% high-fat diet, water and 20 mg/Kg the compound TNHD, and the group 5 was fed with 45% high-fat diet, water and 200 mg/Kg Silymarin. Feeding for 8 weeks, and then all the mice were sacrificed.
At the end of the experiment, taking photographs of the each group were shown as FIG. 4.
The body weight and food intake in the each group were recorded in the table 1, wherein the data is expressed as the mean±SE.

liver = experiment: Organ weights, liver appearance and liver staining (H&E, Surius red) of mice fed 45% high-fat diet; format: in vivo, C57BL/6 mice; settings: for Liver weight: 8 weeks
Experimental: as §1
The weights of liver, kidney and spleen of the mice in the each group were measured and recorded in table 2. The macroscopic appearance of the liver from the mice of the each group was shown as FIG. 6. Furthermore, the liver collected from the sacrificed mice in each groups was fixed with formalin. After the fixation, the liver tissue of the each group was paraffin-embedded for histology section and stained by H&E and Surius red for analysis.

[2] = tested on: fatty liver and obesity animal model prepared by ethanol-containing diet (Lieber-DeCarli); experiment: Fatty liver and obesity animal model prepared by ethanol-containing diet (Lieber-DeCarli); format: in vivo; settings: FIGS. 9 to 14

In the case of `CCCCCCCCCCCCCCCCCCC[C@@H]1OC[C@@H](CO)O1` (relative stereo) [TNHD, trans-2-nonadecyl-4-hydroxymethyl-1,3-dioxolane], the “Effect on body weight, high dose compared with low dose” value ([1]; 45% high-fat diet mice, 20 mg/Kg vs 10 mg/Kg) is reported as “high dose is more effective”, the “Effect on body weight increase of obesity mouse” value ([1]; 45% high-fat diet mice, 10 or 20 mg/Kg, 8 weeks) is reported as “prevent and inhibit the body weight of obesity mouse to increase” and the “Effect on weight loss compared with Silymarin” value ([1]; 45% high-fat diet mice, Silymarin 200 mg/Kg) is reported as “more effective to weight loss than Silymarin”. The Final wight ([1]; group 3: 45% high-fat diet + 10 mg/Kg TNHD, 8 weeks) was 29.8 ± 2.0 g, the Final wight ([1]; group 4: 45% high-fat diet + 20 mg/Kg TNHD, 8 weeks) was 28.1 ± 1.6 g and the “Lipid accumulation in the liver (H&E and Surius red staining)” value (liver; 45% high-fat diet mice, FIGS. 7 and 8) was “inhibit the lipid accumulation in the liver effectively”. For the same compound, the Liver weight (liver; group 3: 45% high-fat diet + 10 mg/Kg TNHD) was 5.23 ± 0.84 g, the “Macroscopic appearance of the liver” value (liver; group 3 or group 4 (10 or 20 mg/Kg), 45% high-fat diet, FIG. 6) was “the liver shows the red color and has smooth surface” and the Liver weight (liver; group 4: 45% high-fat diet + 20 mg/Kg TNHD) was 5.63 ± 0.61 g. For the same compound, the “Effect on obesity, fatty liver or liver damage caused by alcohol” value [2] was “effective to treat or/and prevent obesity, fatty liver or liver damage caused by alcohol”.
